Here are results for 19 compounds from patent publication US7045550B2, “Polyamines and analogs for protecting cells during cancer chemotherapy and radiotherapy” (Wisconsin Alumni Research Foundation, priority 2001, dated 2006).

Assay [1] deals with rat pups challenged with cytoxan. In words: Cytoxan (CTX)-induced alopecia model in rat pups, topical polyamine effector. Format: in vivo, Sprague Dawley rat. Particulars: for efficacy in the rat alopecia and/or dermatitis model: 5 mM, Examples 6, 7 and 8. The method, then:
(§1) Induction of alopecia by cytoxan (CTX). Lactating Sprague Dawley mother rats with rat pups were purchased from Harlan Sprague Dawley (Indianapolis, Ind.). The mother rats were given food and water ad libitum. The rats pups were tested in the model of chemotherapy-induced alopecia described by Hussein A. M. et al., Science: 249, 1564 (1990). Cytoxan (CTX), a chemotherapeutic widely used in the treatment of cancer, was used to induce alopecia in the rats. A common side effect of cytoxan in patients is alopecia. Cytoxan and polyamine effector compounds were purchased from Sigma Chemicals Co. (St. Louis, Mo.). To produce CTX-induced alopecia, 7 to 10 day old rat pups were injected i.p. with 35 mg/kg of CTX prepared in phosphate-buffered saline. To produce reproducible CTX induced alopecia, we first tested several concentrations (35, 40, 45 ug/gm body weight) of CTX in phosphate-buffered saline (PBS), which was injected i.p. in 7–10 day old pups. Seven to ten days after CTX treatment the pups were examined to determine the degree of hair loss. The density of hair on the pups was then determined. 100% hair density represents that found on the untreated control pups while 0% represented pups with total hair loss. It was observed that 35 ug/gm of CTX was sufficient to induce 100% hair loss approximately 7 days after cytoxan challenge, and this concentration was used in subsequent experiments.
Different types of polyamine effector agents were tested in this model. The effectors were prepared in a delivery vehicle, consisting of from 60–100% ethanol in water, depending on the solubility of the compound. The compounds in ethanol/water solution from 50–150 μl in volume were topically administered to the backs of the pups once per day before and after CTX challenge. Using a micropipette, the formulation was applied to approximately 2 cm^2 section of skin to the backs of the rat pups. Specifically, the pups were treated once daily for the 4–5 days before CTX challenge, once on the day of CTX challenge and once daily for 5 days afterwards. Control groups consisted of pups receiving only delivery vehicle. Control groups treated with delivery vehicle were tested as part of every treatment study. Two or more animals were tested per group in both the control and test groups.
Approximately 7 to 10 days after CTX treatment, the pups were evaluated for alopecia. Hair loss was evaluated using a modified alopecia-scoring index described by Chen G. et al., Int. J. Cancer: 75, 303 (1998). A score of 0=no hair loss; a score of 1=10–30% hair loss; a score of 2=40–60% hair loss; a score of 3=70–90% hair loss; and a score of 4=100% hair loss.
as §1, with “It was observed that 35 ug/gm of CTX was sufficient to induce 100% hair loss approximately 7 days after cytoxan challenge, and this concentration was used in subsequent experiments.” left out

Assay [2] relates to rats exposed to radiation. Briefly: Radiation-induced dermatitis model in rats (15 Gy), topical polyamine effector. It is filed as in vivo, Sprague Dawley rat. To be noted: for Avg dermatitis score: 15 Gy, vehicle 3.0. The protocol: To determine if treatment with a polyamine effector could effectively prevent radiation-induced dermatitis, adult rats were topically treated with several different classes of polyamine effectors before and after radiation treatment. Rats were exposed to medically relevant levels of radiation that could induce clinical radiation dermatitis. Sprague Dawley rats (Harlen Spraque Dawley) at 4–6 weeks-old were anesthetized with sodium pentobarbital at 40 mg/kg body weight (Sigma, St. Louis, Mo.) prior to radiation exposure. A defined, depilated area on the backs of rats was irradiated using a Mark I, Model 30, Cs 137 irradiator (J. L. Sheppard & Associates). Briefly, the back was stripped of hair to expose the skin using a 1:1 rosin/beeswax mixture. The rest of the body was protected from radiation exposure using a lead shield. A dose response study was initially preformed to reproduce relevant dermatitis that matched the Grade (I–IV) scale used to score the severity of radiation-induced dermatitis in the clinical setting. Radiation doses of 5–7 Gray (1 Gray (Gy)=[…]) produced Grade I dermatitis within 8–10 days. Radiation doses of 7–10 Gy produced Grade II dermatitis within 8–10 days. After 8–10 days, severe radiation dermatitis was produced at 20–25 Gy (Grade III dermatitis) or at 30–35 Gy (Grade IV). Radiation dermatitis of Grade II–III was considered most clinically relevant, so a radiation challenge dose of 15 Gy in the rats was used in subsequent treatment experiments. The stripped back region on the rats was treated topically with 10–50 mM polyamine effector once daily for 5 days before and 5 days after radiation challenge.
Different classes (natural polyamines and biosynthetic inhibitors) of polyamine effector agents were tested in this model. The polyamine effector compounds were purchased from Sigma Chemicals Co. (St. Louis, Mo.), except Vaniqa, a commercially available cream containing DFMO at 13.9% ([…]). The effectors were prepared in a delivery vehicle, consisting of from 60–100% ethanol in water, depending on the solubility of the compound. The compounds in ethanol/water solution from 100–150 μl in volume were topically administered to the stripped region. Rats treated with only the delivery vehicle served as controls. Eight to ten days post-radiation challenge, the rats were evaluated for dermatitis using a modified scoring scale described by Masuda K. et al. Int. J. Radiation Oncol. Biol. Phys: 12, 1645 (1986). Dermatitis score of 0=normal, 1=slight redness, scaly skin with no focal lesions, 2=moderate redness, breakdown of larger area, some small focal lesions, 3=skin very red, breakdown of most of the irradiated area, large ulcers and crusty lesions, 4=skin very red, breakdown of the entire irradiated area, severe exudation and large crusty lesions.
To determine if treatment with a non-natural polyamine analog could effectively prevent radiation-induced dermatitis, adult rats were topically treated with a polyamine analog before and after radiation treatment. Rats were exposed to medically relevant levels of radiation that could induce clinical radiation dermatitis. Sprague Dawley rats (Harlan Spraque Dawley) at 4–6 weeks old were anesthetized with sodium pentobarbital at 40 mg/kg body weight (Sigma, St. Louis, Mo.) prior to radiation exposure. A defined, depilated area on the backs of rats was irradiated using a Mark I, Model 30, Cs 137 irradiator (J. L. Sheppard & Associates). Briefly, back hair was removed to expose the skin by using Oster electric clippers followed by a safety razor. The rest of the body was protected from radiation exposure using a lead shield. A dose response study was initially preformed to reproduce relevant dermatitis that matched the Grade (I–IV) scale used to score the severity of radiation-induced dermatitis in the clinical setting. Radiation doses of 5–7 Gray (1 Gray (Gy)=[…]) produced Grade I dermatitis within 8–10 days. […]

The test system of a further assay is DNA. Particulars: in vitro; Basu et al. 1993; cited from earlier work.
[3] abbreviates: 1 mM topical (Example 1), scale 0-4, vehicle 4.0.
Setting [4] is: 5 mM topical (Example 1), scale 0-4, vehicle 4.0.
Setting [5] is: 10 mM topical, scale 0-4, vehicle 4.0.
[6] abbreviates: 20 mM topical, scale 0-4, vehicle 4.0.
Where [7] appears, read: 10 mM in ethanol/water, scale 0-4.
Where [8] appears, read: Example 1, concentrations tested.
Setting [9] is: 50 mM topical, scale 0-4, vehicle 4.0.
Where [10] appears, read: 50 mM in ethanol/water, scale 0-4.
Setting [11] is: Example 6, 5 mM in 70% ethanol, topical, scale 0-4, vehicle 4.0.

With `Cl.NCCC[C@](N)(C(=O)O)C(F)F` (racemic) [DFMO, DL-Alpha Difluoromethylornithine HCl, reference compound], the “Avg Alopecia Score” value in assay [1] (setting [3]) is 4.0; in assay [1] (setting [4]) it was 2.0; in assay [1] (setting [5]) it was 2.0; in assay [1] (setting [6]), 3.5. Further, the “effect on CTX-induced alopecia” value in assay [1] (Example 1, 5–10 mM) was “effectively prevented alopecia”. This compound also came in with an Avg dermatitis score in assay [2] (setting [7]) of 2.5.
Take `N=C(N)NCCCCN` [Agmatine]: the “Avg Alopecia Score” value in assay [1] (setting [3]) and in assay [1] (setting [5]) was 3.0 throughout. The “effect on CTX-induced alopecia” value in assay [1] (setting [8]) was “reduced, but did not prevent alopecia”. For the same compound, the Avg dermatitis score in assay [2] (setting [7]) is listed as 1.8; in assay [2] (20 mM in ethanol/water, scale 0 (normal) to 4), 2.0.
Turning to `C[C@](N)(CCCN)C(=O)O` [Alpha-Methyl ornithine, reference compound], the “Avg Alopecia Score” value in assay [1] (setting [4]) and in assay [1] (setting [6]) was 4.0 in each case. The “effect on CTX-induced alopecia” value in assay [1] (setting [8]) is “did not prevent hair loss”.
`CCNCCCNCCCNCCCNCC` [BE-3-3-3, N1, N11-bis (ethyl) norspermine]: the “Avg Alopecia Score” value in assay [1] (setting [3]) is recorded as 2.7; in assay [1] (setting [4]) it was 2.3; in assay [1] (setting [6]) it was 1.7; in assay [1] (Table 15, several data sets at multiple concentrations), 0.3–1.5. For the same compound, the “Alopecia Score +/- SEM” value in assay [1] (Expt. 1, 1 mM, vehicle 4.0 +/- 0.0) was 3.5 +/− 0.7; in assay [1] (Expt. 1, 10 mM, vehicle 4.0 +/- 0.0) it was 1.5 +/− 0.7; in assay [1] (Expt. 2, 1 mM, vehicle 3.5 +/- 0.7) it was 2.5 +/− 0.3; in assay [1] (Expt. 2, 10 mM, vehicle 3.5 +/- 0.7) it was 0.25 +/− 0.3; in assay [1] (Expt. 3, 1 mM, vehicle 4.0 +/- 0.0), 2.7 +/− 0.4; in assay [1] (Expt. 3, 10 mM, vehicle 4.0 +/- 0.0), 2.0 +/− 0.3.
`CCNCCCCNCCCCNCCCCNCC` [BE-4-4-4, 1N,14N-Bisethylhomospermine]: the “DNA binding and aggregation” value in the assay on DNA is “binds to DNA in vitro but does not aggregate it”.
As to `CCNCCCCNCCCCNCCCCNCCCCNCC` [BE-4-4-4-4, 3,8,13,18,23-Pentaazapentacosane], the “DNA binding and aggregation” value in the assay with DNA is “both binds DNA and aggregates it”.
Take `NCCCCCN` [Cadaverine]: the entries for the “Avg Alopecia Score” value in assay [1] (setting [4]) and in assay [1] (setting [9]) were 4.0 and 2.5, respectively.
In the case of `NC(=NCCC[C@H](N)C(=O)O)NO` [NOHA, NG-hydroxy-arginine], the “Avg Alopecia Score” value in assay [1] (setting [4]) amounted to 2.75.
As to `NCCCNCCCN` [Norspermidine], the “Avg Alopecia Score” value in assay [1] (setting [4]) is given as 4.0; in assay [1] (setting [9]), 2.0.
Take `NCCCCN` [Putrescine]: the “Avg Alopecia Score” value in assay [1] (2 mM topical, scale 0-4, vehicle 4.0) turned out to be 3.0; in assay [1] (setting [4]) it was 2.5; in assay [1] (setting [5]) it was 2.0; in assay [1] (setting [9]), 1.5. In assay [2] (setting [10]), this compound yielded an Avg dermatitis score of 3.0.
Consider `CCNCCCNCC1CC1CNCCCNCC` (stereo not drawn) [SL-11038], for which the “efficacy in the rat alopecia and/or dermatitis model” value (shortened to “efficacy”) in assay [1] is on record as “showed efficacy”. The “Avg Alopecia Score” value in assay [1] (setting [11]) was found to be 3.5.
In the case of `CCNCCCNCC1CCC1CNCCCNCC` (stereo not drawn) [SL-11044], the “Avg Alopecia Score” value in assay [1] (setting [11]) worked out at 2.5.
Regarding `CCNCCCNCC#CCNCCCNCC` [SL-11091], the “Avg Alopecia Score” value in assay [1] (setting [11]) turned out to be 3.0.
On to `CNCCCNCC#CCNCCCNC` [SL-11092], for which the “efficacy” value in assay [1] is “showed efficacy”. The “Avg Alopecia Score” value is on record as 0.0 in assay [1] (Table 10, treatment (1 mM), vehicle 4.0) and 0.0 in assay [1] (Table 15, cytoxan-induced, re-screening summary).
For `CCNCCCCNCC#CCNCCCCNCC` [SL-11103], the “efficacy” value in assay [1] is given as “showed efficacy”.
With `CCNCCCCNCCCCNCCCCNCCCCNCCO` [SL-11141], the “efficacy” value in assay [1] is given as “showed efficacy”. In assay [1] (Example 6, 5 mM), the “effectiveness at preventing alopecia after CTX treatment” value was “less effective”. The “Avg Alopecia Score” value in assay [1] (setting [11]) is 3.3.
For `NCCCCNCCCN` [Spermidine], the “Avg Alopecia Score” value stood at 2.0 in assay [1] (setting [5]) and 3.5 in assay [1] (setting [9]).
For `NCCCNCCCCNCCCN` [Spermine], the “Avg Alopecia Score” value in assay [1] (setting [6]) worked out at 3.0; in assay [1] (setting [9]), 2.0; in assay [1] (100 mM topical once daily in ethanol/water, scale 0 (no hair loss) to 4 (100% hair loss), vehicle 4.0), 0.0. Also, in assay [2] (setting [10]), the Avg dermatitis score is given as 2.8.
As to `NCCCNCCSP(=O)(O)O` [amifostine, S-2-(3-aminopropylamino) ethylphoshorothioic acid, reference compound], in assay [2] (radiation-induced dermatitis assay, as compared with putrescine), the “radioprotective activity” value is “good radioprotective activity”.
